In publication PMC5764337 (PLoS ONE, 2018):

Experiments:
B/BR/60/08 virus NA = B/BR/60/08 virus NA (Influenza B virus, UniProt C0LT34); type: biochemical; conditions: read-out: NA enzyme inhibition assay (mean IC50 ± SD)
A/PR8-WT virus NA = A/PR8-WT virus NA (Influenza A virus (H3N2), UniProt A0A193ACB1); type: biochemical

**Q.** Which results are given for CCC(CC)[C@H](NC(C)=O)[C@@H]1[C@H](O)[C@@H](C(=O)O)C[C@H]1N=C(N)N [Peramivir, peramivir]?
**A.** IC50 (B/BR/60/08 virus NA): 0.5 nM; fold increase in IC50 over A/PR8-WT (A/PR8-WT virus NA): 0.1 ± 0.02 (1) fold; IC50 (A/PR8-WT virus NA; read-out: NA enzyme inhibition assay (mean IC50 ± SD)): 0.1 nM
